From patent US8426448B2, “1,5-diphenyl-pyrrolidin-2-one compounds as CB-1 ligands” (Eli Lilly and Company, priority 2008, dated 2013)
Counter-ions that a name gives are not always drawn.

Experiments:
hCB-1 [1] = target: T1, hCB-1 (Homo sapiens, UniProt P21554); experiment: hCB1-CHO antagonist mode SPA GTP-γ-35S binding assay; format: biochemical; design: purchased Applied Cell Sciences, Rockville, Md; host or cells: CHO cell membranes; settings: antagonist mode vs methanandamide; read-out: hCB-1 SPA GTPγS CHO Membrane Antagonist Kb
Experimental: (§1) Compounds of the present invention may be tested for functional activity at the CB-1 and CB-2 receptors in both agonist and antagonist modes using SPA (Scintillation Proximity Assay) based GTP-γ-^35S binding assays. All assay components are prepared in assay buffer (20 mM HEPES, 100 mM NaCl, 5 mM MgCl2, pH 7.4) at room temperature. Semi-log dilutions of test compound are prepared in assay buffer containing BSA (0.125% final conc.) for the agonist mode assays. For the antagonist mode assays, test compounds are prepared in the same manner but also include an 80% efficacious dose of a full agonist (methanandamide). GTP-γ^35S binding for the antagonist assay may be measured in a 96 well format using a modification of an antibody capture technique previously described. (DeLapp, N W, et al. (1999) J Pharmacol Exp Ther 289:946-955.) The CB-2 receptor agonist activity may be measured using a similar method using hCB2-Sf9 membranes. The CB-1 receptor agonist activity may be measured using a whole membrane capture technique using hCB1-CHO membranes. All incubations are done at room temperature.
(§2) hCB1-CHO or rCB1-CHO membranes (Applied Cell Sciences, Rockville, Md.) and GDP (1 μM final) are added to ice cold assay buffer and homogenized. […] Plates are then centrifuged at 700×g for 10 min. and the radioactivity counted.
(§3) Data are analyzed as follows: Background is subtracted from all wells. […] Percent antagonist inhibition is calculated by first normalizing the data to the signal generated by a saturating concentration of the full agonist (methanandamide). Then the data are analyzed using a 4-parameter logistic reduced fit (Activity Base™ and XLFit3™ from IDBS, Emeryville, Calif.). Kb values are determined using a modification of the Cheng-Prusoff relationship: Kb=IC50/(1+[agonist]/EC50), where “IC50” is determined from a four parameter fit of displacement curves, “[agonist]” is the agonist challenge concentration (nM), and “EC50” is determined from a four parameter fit of a full agonist concentration response curve (Cheng and Prusoff 1973). […]

hCB-1 [2] = target: T1, hCB-1; experiment: hCB1-Sf9 antagonist mode SPA GTP-γ-35S binding assay; format: biochemical; design: purchased Applied Cell Sciences, Rockville, Md; settings: Sf9 membrane 22.7 μg; antagonist mode vs methanandamide; read-out: hCB-1 SPA GTPγS Sf9 Membrane 22.7 μg Antagonist Kb
Experimental: (§4) Compounds of the present invention may be tested for functional activity at the CB-1 and CB-2 receptors in both agonist and antagonist modes using SPA (Scintillation Proximity Assay) based GTP-γ-^35S binding assays. All assay components are prepared in assay buffer (20 mM HEPES, 100 mM NaCl, 5 mM MgCl2, pH 7.4) at room temperature. Semi-log dilutions of test compound are prepared in assay buffer containing BSA (0.125% final conc.) for the agonist mode assays. For the antagonist mode assays, test compounds are prepared in the same manner but also include an 80% efficacious dose of a full agonist (methanandamide). GTP-γ^35S binding for the antagonist assay may be measured in a 96 well format using a modification of an antibody capture technique previously described. (DeLapp, N W, et al. (1999) J Pharmacol Exp Ther 289:946-955.) The CB-2 receptor agonist activity may be measured using a similar method using hCB2-Sf9 membranes. The CB-1 receptor agonist activity may be measured using a whole membrane capture technique using hCB1-CHO membranes. All incubations are done at room temperature. […]
(§5) Data are analyzed as follows: Background is subtracted from all wells. […] Percent antagonist inhibition is calculated by first normalizing the data to the signal generated by a saturating concentration of the full agonist (methanandamide). Then the data are analyzed using a 4-parameter logistic reduced fit (Activity Base™ and XLFit3™ from IDBS, Emeryville, Calif.). Kb values are determined using a modification of the Cheng-Prusoff relationship: Kb=IC50/(1+[agonist]/EC50), where “IC50” is determined from a four parameter fit of displacement curves, “[agonist]” is the agonist challenge concentration (nM), and “EC50” is determined from a four parameter fit of a full agonist concentration response curve (Cheng and Prusoff 1973). Mean Kb values are calculated as a mean of at least three independent determinations±standard error of the mean (SEM). […]

hCB-2 [3] = target: T2, hCB-2 (Homo sapiens, UniProt P34972); experiment: hCB2-Sf9 antagonist mode SPA GTP-γ-35S binding assay; format: biochemical; settings: antagonist mode vs methanandamide; read-out: hCB-2 SPA GTPγS Sf9 Membrane Antagonist Kb
T2 construct: purchased Perkin Elmer, Boston, Mass; host or cells: Sf9 cell membranes
Experimental: as §4, §5

hCB-2 [4] = target: T2, hCB-2; experiment: hCB2-Sf9 agonist mode SPA GTP-γ-35S binding assay; format: biochemical; settings: read-out: hCB-2 SPA GTPγS Sf9 Membrane Agonist Relative EC50
Experimental: as §4
Data are analyzed as follows: Background is subtracted from all wells. […] Percent antagonist inhibition is calculated by first normalizing the data to the signal generated by a saturating concentration of the full agonist (methanandamide). […]

hCB-1 [5] = target: T1, hCB-1; experiment: hCB1-CHO agonist mode SPA GTP-γ-35S binding assay; format: biochemical; design: purchased Applied Cell Sciences, Rockville, Md; host or cells: CHO cell membranes
Experimental: as §1
hCB1-CHO membrane, GDP (1 μM final conc.), and saponin (10 μg/mL final conc., Sigma, St Louis, Mo.) are combined and prepared on ice as for the antagonist assays, above. Diluted test compounds, GTP-γ-^35S ([…] final conc.) and membranes are combined in the assay plate and incubated for 30 min. Then 1 mg/well Wheatgerm Agglutinin SPA beads (GE Healthcare, Piscataway, N.J.) are added, plates are sealed and vortexed and incubate for 1 hr. before spinning and counting in the same fashion as for the antagonist assays, above.
Data are analyzed as follows: Background is subtracted from all wells. Percent agonist efficacy is determine by normalizing agonist/inverse agonist dose response data to the response obtained for a full agonist (methanandamide). Percent antagonist inhibition is calculated by first normalizing the data to the signal generated by a saturating concentration of the full agonist (methanandamide). Then the data are analyzed using a 4-parameter logistic reduced fit (Activity Base™ and XLFit3™ from IDBS, Emeryville, Calif.). Kb values are determined using a modification of the Cheng-Prusoff relationship: Kb=IC50/(1+[agonist]/EC50), where “IC50” is determined from a four parameter fit of displacement curves, “[agonist]” is the agonist challenge concentration (nM), and “EC50” is determined from a four parameter fit of a full agonist concentration response curve (Cheng and Prusoff 1973). Mean Kb values are calculated as a mean of at least three independent determinations±standard error of the mean (SEM). […]

CYP2D6 = target: T3, CYP2D6 (Homo sapiens, UniProt P10635); experiment: Human CYP fingerprinting, quinidine inhibition; format: in vitro ADME; settings: 4 μM, human liver microsomes, 30 min, 10 μM quinidine
T3 construct: pooled, mixed gender, human liver microsomes; from tissue; host or cells: pooled, mixed gender human liver microsomes
Experimental: (§6) CYP fingerprinting is well established technique and is used as an indication of potential risk of drug-drug interactions in the pharmaceutical sciences. Compounds of the present invention may be assayed by well known methods, essentially as follows: Compounds are incubated at 37° C. at a final concentration of 4 μM with pooled, mixed gender, human liver microsomes and 1 mM NADPH (Nicotine Adenine Dinucleotide Phosphate) (final conc.) for 0 and 30 min. without any CYP inhibitor and with each CYP inhibitor in separate incubations for 30 min. Each inhibitor is specific for an individual cytochrome P450. The specific inhibitors used for CYPs 2C9, 2D6 and 3A were sulfaphenazole, quinidine and ketoconazole, respectively. Ketoconazole (CYP3A) is made up at 25 mM in DMSO and then diluted in buffer to a final concentration of 10 μM. Quinidine (CYP2D6) is made up at 5 mM in 50/50 acetonitrile/water and then diluted in buffer to a final concentration of 10 μM. Sulfaphenazole (CYP2C9) is made up at 100 mM in DMSO and then diluted in buffer to a final concentration of 5 μM. Samples are analyzed by LC-MS in positive or negative electrospray mode using a Waters Acquity Ultra Performance LC coupled to a MicroMass Q-T of-2 mass spectrometer.
(§7) Data are analyzed using MetaboLynx™ version 4.1. […]

CYP3A = experiment: Human CYP fingerprinting, ketoconazole inhibition; format: in vitro ADME; settings: 4 μM, human liver microsomes, 30 min, 10 μM ketoconazole
Experimental: as §6, §7

rCB-1 = target: T4, rCB-1 (Rattus norvegicus, UniProt P20272); experiment: rCB1-CHO antagonist mode SPA GTP-γ-35S binding assay; format: biochemical; settings: antagonist mode vs methanandamide; read-out: rCB-1 SPA GTPγS CHO Membrane Antagonist Kb
T4 construct: purchased Applied Cell Sciences, Rockville, Md; host or cells: CHO cell membranes
Experimental: as §1, §2, §3

CYP2C9 = target: T5, CYP2C9 (Homo sapiens, UniProt P11712); experiment: Human CYP fingerprinting, sulfaphenazole inhibition; format: in vitro ADME; settings: 4 μM, human liver microsomes, 30 min, 5 μM sulfaphenazole
T5 construct: pooled, mixed gender, human liver microsomes; from tissue; host or cells: pooled, mixed gender human liver microsomes
Experimental: as §6, §7

T1 sequence (P21554 whole entry): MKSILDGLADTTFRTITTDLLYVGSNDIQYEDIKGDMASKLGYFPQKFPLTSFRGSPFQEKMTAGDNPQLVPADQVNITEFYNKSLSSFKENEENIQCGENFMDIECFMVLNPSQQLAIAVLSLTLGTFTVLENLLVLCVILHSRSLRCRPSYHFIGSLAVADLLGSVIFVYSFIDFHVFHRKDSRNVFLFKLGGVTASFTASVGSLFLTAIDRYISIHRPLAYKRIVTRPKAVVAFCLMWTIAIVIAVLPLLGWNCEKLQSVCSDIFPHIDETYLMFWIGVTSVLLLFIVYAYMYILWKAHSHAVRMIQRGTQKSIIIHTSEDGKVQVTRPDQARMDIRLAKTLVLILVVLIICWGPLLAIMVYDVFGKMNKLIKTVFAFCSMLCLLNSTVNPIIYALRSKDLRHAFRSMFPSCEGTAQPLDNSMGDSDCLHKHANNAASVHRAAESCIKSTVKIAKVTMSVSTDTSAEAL
T2 sequence (P34972 whole entry): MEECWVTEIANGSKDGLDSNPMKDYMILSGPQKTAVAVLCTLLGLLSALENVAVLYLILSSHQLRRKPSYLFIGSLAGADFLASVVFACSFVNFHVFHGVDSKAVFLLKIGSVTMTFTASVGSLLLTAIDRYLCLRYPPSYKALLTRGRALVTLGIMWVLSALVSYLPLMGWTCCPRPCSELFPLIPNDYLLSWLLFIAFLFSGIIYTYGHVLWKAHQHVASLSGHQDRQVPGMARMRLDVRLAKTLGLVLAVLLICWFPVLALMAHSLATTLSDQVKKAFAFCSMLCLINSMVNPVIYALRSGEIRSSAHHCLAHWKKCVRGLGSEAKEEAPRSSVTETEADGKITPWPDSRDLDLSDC
T3 sequence (P10635 whole entry): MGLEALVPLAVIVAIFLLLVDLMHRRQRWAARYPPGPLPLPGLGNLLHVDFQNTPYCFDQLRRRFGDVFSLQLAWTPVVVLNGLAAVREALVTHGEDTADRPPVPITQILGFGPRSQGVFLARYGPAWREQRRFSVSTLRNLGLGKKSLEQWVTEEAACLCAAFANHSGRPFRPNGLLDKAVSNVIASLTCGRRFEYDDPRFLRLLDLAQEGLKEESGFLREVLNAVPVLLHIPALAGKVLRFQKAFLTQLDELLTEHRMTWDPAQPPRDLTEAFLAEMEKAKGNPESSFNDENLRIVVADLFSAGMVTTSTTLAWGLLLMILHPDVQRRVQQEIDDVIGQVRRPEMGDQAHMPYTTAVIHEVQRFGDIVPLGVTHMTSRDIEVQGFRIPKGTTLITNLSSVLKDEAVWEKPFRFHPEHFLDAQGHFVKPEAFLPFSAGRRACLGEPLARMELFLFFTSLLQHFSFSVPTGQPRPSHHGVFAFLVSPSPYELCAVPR
T4 sequence (P20272 whole entry): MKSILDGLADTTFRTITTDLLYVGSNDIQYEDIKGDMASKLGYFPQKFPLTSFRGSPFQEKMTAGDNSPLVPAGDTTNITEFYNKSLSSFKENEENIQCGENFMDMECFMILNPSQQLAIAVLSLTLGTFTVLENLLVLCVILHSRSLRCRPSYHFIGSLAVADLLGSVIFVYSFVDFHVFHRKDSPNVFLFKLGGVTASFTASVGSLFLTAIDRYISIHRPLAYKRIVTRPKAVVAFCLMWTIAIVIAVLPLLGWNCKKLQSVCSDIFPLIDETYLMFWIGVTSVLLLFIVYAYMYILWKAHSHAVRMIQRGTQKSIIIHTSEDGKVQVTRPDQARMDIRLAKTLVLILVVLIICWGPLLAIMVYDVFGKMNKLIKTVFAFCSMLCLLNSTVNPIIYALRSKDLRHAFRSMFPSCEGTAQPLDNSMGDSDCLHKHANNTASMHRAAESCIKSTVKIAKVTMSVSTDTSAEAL
T5 sequence (P11712 whole entry): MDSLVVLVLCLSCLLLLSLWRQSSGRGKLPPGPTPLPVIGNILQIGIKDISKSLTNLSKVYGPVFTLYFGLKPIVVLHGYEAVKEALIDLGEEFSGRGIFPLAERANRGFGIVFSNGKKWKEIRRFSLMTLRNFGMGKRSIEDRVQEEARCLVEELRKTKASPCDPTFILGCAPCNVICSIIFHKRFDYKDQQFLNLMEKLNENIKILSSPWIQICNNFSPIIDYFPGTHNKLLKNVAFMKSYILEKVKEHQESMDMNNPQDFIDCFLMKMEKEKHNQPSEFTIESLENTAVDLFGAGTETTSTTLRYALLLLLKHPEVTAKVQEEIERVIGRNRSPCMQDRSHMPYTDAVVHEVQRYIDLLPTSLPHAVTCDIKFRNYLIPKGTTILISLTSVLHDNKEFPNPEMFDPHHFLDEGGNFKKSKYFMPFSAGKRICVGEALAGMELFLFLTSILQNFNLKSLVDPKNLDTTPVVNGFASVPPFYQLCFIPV

- Kb (hCB-1 [1]): 0.179 nM
- Kb (hCB-1 [2]): 1.77 nM
- Kb (hCB-2 [3]): > 18400 nM
- EC50 (hCB-2 [4]): > 100000 nM
- EC50 (hCB-1 [5]; inverse agonism, read-out: hCB-1 SPA GTPγS CHO Membrane Agonist Relative EC50 inverse): 0.943 nM
- hCB-1 SPA GTPγS CHO Membrane Agonist % Relative Efficacy (hCB-1 [5]; normalized to full agonist methanandamide): −97.3%
- Risk of Drug Drug Interaction (DDI) CYP2D6 (CYP2D6): Low
- Risk of Drug Drug Interaction (DDI) CYP3A (CYP3A): Low
- Kb (rCB-1): 0.238 nM
Structure (SMILES): CC(C)(N[C@@H]1C[C@H](c2cccc(OC(F)(F)F)c2)N(c2ccc(C#N)cc2)C1=O)c1cccc(C(F)(F)F)n1 [27 Tosylate salt, 4-[(3R,5R)-3-[1-methyl-1-(6-trifluoromethyl-pyridin-2-yl)-ethylamino]-2-oxo-5-(3-trifluoromethoxy-phenyl)-pyrrolidin-1-yl]-benzonitrile tosylate]
- Risk of Drug Drug Interaction (DDI) CYP2C9 (CYP2C9): low (a reduction in metabolite peak area of less than 30% (relative to the uninhibited control incubation) receives a designation of low risk of Drug Drug Interaction (DDI))
